{"source": "patent US9512074B2", "about": "“Radiolabeled inhibitors of the amino acid transporters ASCT1 and ASCT2” (The University of Montana, priority 2011, dated 2016)", "key": {"Human ASCT1": {"target": "T1, Human ASCT1 (Homo sapiens, UniProt P43007)", "T1 construct": "expressed in transfected cells; host or cells: Xenopus laevis oocytes (cRNA microinjection)", "T1 sequence (P43007 1-532)": "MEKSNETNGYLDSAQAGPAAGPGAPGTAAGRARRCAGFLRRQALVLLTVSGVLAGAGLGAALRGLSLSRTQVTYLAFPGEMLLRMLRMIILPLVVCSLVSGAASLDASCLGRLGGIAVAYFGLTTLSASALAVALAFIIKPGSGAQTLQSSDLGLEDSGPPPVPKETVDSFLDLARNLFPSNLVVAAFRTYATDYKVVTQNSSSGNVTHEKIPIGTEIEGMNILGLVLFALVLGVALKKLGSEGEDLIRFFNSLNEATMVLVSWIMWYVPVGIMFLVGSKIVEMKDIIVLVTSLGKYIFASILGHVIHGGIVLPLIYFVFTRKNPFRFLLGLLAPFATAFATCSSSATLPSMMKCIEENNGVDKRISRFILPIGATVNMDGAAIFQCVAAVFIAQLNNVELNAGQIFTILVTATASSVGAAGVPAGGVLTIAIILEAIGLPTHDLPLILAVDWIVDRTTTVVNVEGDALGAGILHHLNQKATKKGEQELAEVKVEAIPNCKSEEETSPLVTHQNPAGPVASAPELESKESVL", "test": "Inhibition of anion leak current, two-electrode voltage clamp in Xenopus oocytes expressing human ASCT1", "type": "cell-based", "details": "for Ki: Xenopus oocytes expressing human ASCT1, held at −20 mV, * = actual Ki, others Ki estimates, read-out: Ki (μM) ACST1", "experimental": "(§1) Human ASCT1 and murine ASCT2 cRNA were microinjected in stage V-VI oocytes. Uncoupled anion currents associated with the transport of substrate were recorded 3-5 days later as previously described (Zerangue & Kavanaugh, 1996). Recording solution contained 50 mM NaCl, 50 mM NaSCN, 2 mM KCl, 1 mM MgCl2, 1.8 mM CaCl2, and 5 mM HEPES (pH 7.4). Using two-electrode voltage clamp (TEVC), oocytes were held at −20 mV. Microelectrodes were filled with 3M KCl and had resistances from 1 to 3 MΩ. Recordings were performed at 22° C. with a Geneclamp 500 amplifier connected to a PowerLab 2/26 (AD instruments). The digital output was interfaced to a MacBook Pro (Macintosh) using Chart v7.1.2 software. The currents were low-pass filtered at 10 Hz and acquired at 20 Hz. Data was analyzed offline and modeling and fitting of substrate concentration-dependence of the currents was performed with Kaleidagraph software (v 4.04). The concentration dependent percent block of the anion leak or substrate activation of the anion current were fit with the Michaelis-Menten equation (Ianion=Imax×[Drug]/(Km+[Drug])) to define the Ki of inhibition or the apparent affinity (Km) of transport, respectively."}, "murine ASCT2": {"target": "T2, murine ASCT2 (Mus musculus, UniProt P51912)", "T2 construct": "expressed in transfected cells; host or cells: Xenopus laevis oocytes (cRNA microinjection)", "T2 sequence (P51912 1-553)": "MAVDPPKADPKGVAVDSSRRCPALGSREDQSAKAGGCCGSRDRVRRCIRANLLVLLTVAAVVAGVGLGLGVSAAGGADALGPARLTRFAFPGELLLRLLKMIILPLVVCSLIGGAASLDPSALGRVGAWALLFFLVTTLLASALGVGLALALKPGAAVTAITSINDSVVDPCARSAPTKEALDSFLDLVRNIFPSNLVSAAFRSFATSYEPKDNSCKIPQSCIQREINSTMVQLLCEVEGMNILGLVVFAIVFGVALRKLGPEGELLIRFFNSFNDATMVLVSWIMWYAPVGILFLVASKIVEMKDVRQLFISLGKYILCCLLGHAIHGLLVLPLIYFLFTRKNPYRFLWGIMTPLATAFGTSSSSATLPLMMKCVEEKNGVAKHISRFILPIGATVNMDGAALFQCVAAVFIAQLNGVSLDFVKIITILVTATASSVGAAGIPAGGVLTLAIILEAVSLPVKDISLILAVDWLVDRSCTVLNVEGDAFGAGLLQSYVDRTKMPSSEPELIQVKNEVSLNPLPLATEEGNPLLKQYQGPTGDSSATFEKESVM", "test": "Inhibition of anion leak current, two-electrode voltage clamp in Xenopus oocytes expressing mouse ASCT2", "type": "cell-based", "details": "for Ki: Xenopus oocytes expressing mouse ASCT2, held at −20 mV, * = actual Ki, others Ki estimates", "experimental": "as §1"}, "[1]": {"details": "300 μM, −20 mV, opposite the current induced by substrate"}}, "data": [{"molecule": "O=C(O)[C@H]1NC[C@@H](Oc2ccccc2)C1O", "note": "(stereo in doubt) [CSE118, (2S,3S,4R)-3-hydroxy-4-phenoxy-proline]", "values": [{"measurement": "Ki", "setting": "Human ASCT1", "result": 150, "unit": "µM"}, {"measurement": "Ki", "setting": "murine ASCT2", "result": 141, "unit": "µM"}]}, {"molecule": "C[C@]1(O)CN[C@H](C(=O)O)C1", "note": "[CSE95, cis-4-methyl-trans-4-hydroxy-L-proline]", "values": [{"measurement": "Ki", "setting": "Human ASCT1", "result": "> 500", "unit": "µM"}, {"measurement": "Ki", "setting": "murine ASCT2", "result": 926, "unit": "µM"}]}, {"molecule": "C[C@@]1(O)CN[C@H](C(=O)O)C1", "note": "[CSE96, cis-4-hydroxy-trans-4-methyl-L-proline]", "values": [{"measurement": "Ki", "setting": "Human ASCT1", "result": "> 500", "unit": "µM"}, {"measurement": "Ki", "setting": "murine ASCT2", "result": 1080, "unit": "µM"}]}, {"molecule": "O=C(O)[C@H]1NC[C@H](O)[C@H]1c1ccccc1", "note": "[CSE103, (2S,3S,4R)-3-phenyl-4-hydroxy-proline]", "values": [{"measurement": "Ki", "setting": "Human ASCT1", "result": 332, "unit": "µM"}, {"measurement": "Ki", "setting": "murine ASCT2", "result": 1130, "unit": "µM"}]}, {"molecule": "O=C(O)[C@H]1NC[C@@H](c2ccccc2)[C@@H]1O", "note": "[CSE104, (2S,3S,4R)-3-hydroxy-4-phenyl-proline]", "values": [{"measurement": "Ki", "setting": "Human ASCT1", "result": "> 500", "unit": "µM"}, {"measurement": "Ki", "setting": "murine ASCT2", "result": "> 500", "unit": "µM"}]}, {"molecule": "C[C@H]1[C@@H](C(=O)O)NC[C@@H]1O", "note": "[CSE109]", "values": [{"measurement": "Ki", "setting": "Human ASCT1", "result": 564, "unit": "µM"}, {"measurement": "Ki", "setting": "murine ASCT2", "result": 922, "unit": "µM"}]}, {"molecule": "C[C@@H]1CN[C@H](C(=O)O)[C@H]1O", "note": "[CSE110]", "values": [{"measurement": "Ki", "setting": "Human ASCT1", "result": 1050, "unit": "µM"}, {"measurement": "Ki", "setting": "murine ASCT2", "result": 1150, "unit": "µM"}]}, {"molecule": "O=C(O)[C@@H]1C[C@H](O)CN1", "note": "[CSE111]", "values": [{"measurement": "Ki", "setting": "Human ASCT1", "result": 805, "unit": "µM"}, {"measurement": "Ki", "setting": "murine ASCT2", "result": 872, "unit": "µM"}]}, {"molecule": "O=C(O)[C@H]1NC[C@H](OCc2ccccc2)[C@H]1O", "note": "[CSE113, cis-3-hydroxy-trans-4-benzyloxy-L-proline]", "values": [{"measurement": "Ki", "setting": "Human ASCT1", "result": 493, "unit": "µM"}, {"measurement": "Ki", "setting": "murine ASCT2", "result": 828, "unit": "µM"}]}, {"molecule": "CO[C@@H]1CN[C@H](C(=O)O)[C@H]1O", "note": "[CSE115, trans-3-hydroxy-cis-4-methoxy-L-proline]", "values": [{"measurement": "Ki", "setting": "Human ASCT1", "result": 214, "unit": "µM"}, {"measurement": "Ki", "setting": "murine ASCT2", "result": 235, "unit": "µM"}]}, {"molecule": "O=C(O)[C@H]1NC[C@H](O)[C@H]1Oc1ccccc1", "note": "[CSE117, (2S,3S,4S)-3-phenoxy-4-hydroxy-proline]", "values": [{"measurement": "Ki", "setting": "Human ASCT1", "result": 594, "unit": "µM"}, {"measurement": "Ki", "setting": "murine ASCT2", "result": 502, "unit": "µM"}]}, {"molecule": "O=C(O)[C@H]1NC[C@@H](OCc2ccccc2)[C@@H]1O", "note": "[CSE121, trans-3-hydroxy-cis-4-benzyloxy-L-proline]", "values": [{"measurement": "Ki", "setting": "Human ASCT1", "result": 39, "unit": "µM"}, {"measurement": "block of leak current in mASCT2 (FIG. 4)", "setting": "murine ASCT2; [1]", "result": "blocking a leak current"}, {"measurement": "Ki", "setting": "murine ASCT2", "result": 69, "unit": "µM"}]}, {"molecule": "CC(C)O[C@@H]1CN[C@H](C(=O)O)[C@H]1O", "note": "[CSE122]", "values": [{"measurement": "block of leak current in hASCT1 (FIG. 4)", "setting": "Human ASCT1; [1]", "result": "blocking a leak current"}, {"measurement": "Ki", "setting": "Human ASCT1", "result": 237, "unit": "µM"}, {"measurement": "Ki", "setting": "murine ASCT2", "result": 268, "unit": "µM"}]}, {"molecule": "CO[C@H]1CN[C@H](C(=O)O)[C@@H]1O", "note": "[CSE124]", "values": [{"measurement": "Ki", "setting": "Human ASCT1", "result": 481, "unit": "µM"}, {"measurement": "Ki", "setting": "murine ASCT2", "result": 600, "unit": "µM"}]}, {"molecule": "CC(C)O[C@H]1CN[C@H](C(=O)O)[C@@H]1O", "note": "[CSE127, cis-3-hydroxy-trans-4-isopropoxy-L-proline]", "values": [{"measurement": "Ki", "setting": "Human ASCT1", "result": "> 500", "unit": "µM"}, {"measurement": "Ki", "setting": "murine ASCT2", "result": "> 500", "unit": "µM"}]}, {"molecule": "O=C(O)[C@H]1NC[C@@H](OCc2cccc(Oc3ccccc3)c2)[C@@H]1O", "note": "[CSE130]", "values": [{"measurement": "Ki", "setting": "Human ASCT1", "result": 13, "unit": "µM"}, {"measurement": "Ki", "setting": "murine ASCT2", "result": 10, "unit": "µM"}]}, {"molecule": "O=C(O)[C@H]1NC[C@@H](OCc2ccc(-c3ccccc3)cc2)[C@@H]1O", "note": "[CSE131, (2S,3R,4R)-3-hydroxy-4-o-methyl-p-biphenyl-proline]", "values": [{"measurement": "Ki", "setting": "Human ASCT1", "result": 0.31, "unit": "µM"}, {"measurement": "Ki", "setting": "murine ASCT2", "result": 0.24, "unit": "µM"}]}, {"molecule": "O=C(O)[C@H]1NC[C@@H](OCc2cccc3ccccc23)[C@@H]1O", "note": "[CSE132]", "values": [{"measurement": "Ki", "setting": "Human ASCT1", "result": "~10", "unit": "µM"}, {"measurement": "Ki", "setting": "murine ASCT2", "result": "~10", "unit": "µM"}]}]}
